Test system: Brown Dog Tick (Rhipicephalus sanguineus)
Assay: Dose response protocol for topical application on brown dog ticks (LD50)
Assay type: in vivo
Conditions: 24 h mortality
Experimental: e) Dose response protocol for topical application on brown dog ticks (Rhipicephalus sanguineus): The test determines the level of insecticidal activity of sample compounds or formulations when applied topically on brown dog ticks. Sample compounds were stored prior to use in a freezer (−5±1° C.), unless otherwise specified.
• Mortality: A tick is defined as dead after it gives no apparent response when touched lightly or gently breathed upon, while observed for 30 seconds. • LD50 (Lethal Dose 50): The dose of a topically applied treatment at which 50% of the dog ticks are killed. • Reference compound: To assess an experimental compound for significant acaricidal activity a single dose level is chosen, which is based upon known results from previous experiments using a commercially available active i.e., a reference compound. The reference compound selected is one in common use, and one that has a similar mode of action against the Brown Dog Tick (i.e., the test species). • Recovery container: A recovery container consists of a 500 ml round plastic container measuring 115 mm diameter and 70 mm height, with a tight fitting lid that has 10 small (˜1 mm) holes inserted for air exchange. A 90 mm diameter piece of filter paper was placed on the bottom of the container and moistened with 1 mL of de-stilled water.
Adult, mixed sex, Brown Dog Ticks (Rhipicephalus sanguineus) were reared as follows: (i) cultured, (ii) transferred unfed, to a testing laboratory, and (iii) then maintained under controlled conditions (i.e., temp. 18°±2° C., humidity 75±5% RH). The ticks used were selected for vigor prior to testing, i.e., capable of actively walking and responsive to being touched or gently breathed upon.
During the testing, the temperature was maintained at 25±1° C., and the humidity was ambient. Seven dose levels (concentrations) of sample compound, in the form of serial dilutions in acetone, were derived from a pilot study and covered a range that produced very low to very high mortality. Groups of ten ticks were treated topically (on the abdomen) with 1 μL of a single dose level of the sample compound. Each test was replicated four times, i.e., employing a total of 40 ticks per dose level of each sample compound. As a control, ten ticks were treated with solvent only (acetone) for each test. Following the treatment, the ticks were held in recovery containers maintained under appropriate rearing conditions for 24 hours. Mortality resulting from the treatments was recorded at 24 hours. […] Press, London (1971).]

Structure (SMILES) | R. sanguineus LD50 [μg/tick]
CC/C(=N\OCc1ccc(C(F)(F)F)cc1)c1cc(Cl)ccc1NS(=O)(=O)C(F)(F)F [Compound 9] | 2.7
CC/C(=N\OCc1ccc(Cl)cc1)c1cc(Cl)ccc1NS(=O)(=O)C(F)(F)F [Compound 11, N-{4-chloro-2-[1-(4-chlorobenzyloxyimino)propyl]phenyl}trifluoromethanesulfonamide] | 2.5

From patent publication US7312248B2, “Control of parasites in animals by the use of novel trifluoromethanesulfonanilide oxime ether derivatives” (Schering-Plough Animal Health Corporation, priority 2004, dated 2007)
